Data reported in patent US5597822A, “Pharmaceutical compositions for the prevention and/or treatment a gastrointestinal diseases” (Egis Pharmaceutical, priority 1993, dated 1997).

Tests used:
[1] = system: gastric mucosa lesions induced by absolute ethanol; test: Gastroprotective activity, test with absolute ethanol (gastric mucosa erosions); format: in vivo, rat
Method: (§1) Rats of both sexes weighing 200 to 250 g, each previously starved for 24 hours, were used in this experiment. The lesions of gastric mucosa were induced by the oral administration of absolute ethanol in a dose of 1 ml/animal. After one hour following the administration, the animals were killed by an overdose of ether, the stomach was excised and the alterations of gastric mucosa were examined. The lengths of the erosions were measured and summarized (expressed in mm) for each stomach to obtain the erosion index by calculating the average value of the group. The inhibition was calculated in percentage by comparing the value of the group treated with ethanol to that of the control group treated only with the vehicle. Various doses of the compounds to be tested were administered, perorally, in a volume of 5 ml/kg using a pretreatment time of 60 minutes. Eight rats were used for each dose. /A. Robert, Gastroenterology 77, 761-767 (1979)/.
^x Relative activity = ED50 value of the gastric acid inhibition
related to the ED50 value of the inhibition of the gastric erosion.

[2] = system: gastric acid secretion; test: Effect on the gastric acid secretion (Shay's method, pylorus ligation); format: in vivo, Wistar rats; conditions: rat, p.o., test according to Shay
Method: The influence of the compounds on the gastric acid secretion was examined on starved Wistar rats of both sexes weighing 180 to 240 g each by using Shay's method /H. Shay et al., Gastroenterology, 5, 45 (1945)/. The compounds to be tested were given, perorally, 3 hours before the ligation of the pylorus. Four hours after the operation, the animals were killed by an overdose of ether, the stomach was excised, the stomach content was centrifuged and the free hydrochloric acid content of the gastric juice was determined by titration in the presence of Topfer's reagent. The percentage of inhibition and then the ED50 values were determined by calculating average values for the groups and comparing those to the average values for the control group.

[3] = system: gastric erosions induced by ethanol containing hydrochloric acid; test: Test with ethanol containing hydrochloric acid (gastric erosions); format: in vivo, rat; conditions: po; rat, p.o., HCl/absolute ethanol 1 to 50; erosion index; read-out: Inhibition of the erosion index, ED50 p.o.
Method: as §1
The principle of the method consists in that, simultaneously with the administration of absolute ethanol, hydrochloric acid is introduced to the stomach. Thus, the influence on systemic gastric acid inhibition action can be eliminated by the presence of the exogenous acid.
The reagent used in this test was a mixture of concentrated aqueous hydrochloric acid and absolute ethanol in a mass ratio of 1 to 50 in accordance with the dilution ratio used by Yamazaki et al., see Japan J. Pharmacol., 55, 415-424 (1991). Otherwise, the experiment was performed as described under test 2.1., however, in addition to the erosion index calculated from the lengths of the erosions in mm, the ratio of occurence of animals showing at least one gastric erosion within a test group, i.e. the erosion frequency, was also evaluated.

[4] = system: Helicobacter pylori; test: Antibacterial effect on Helicobacter pylori (MIC, blood agar); format: cell-based; conditions: for MIC: Helicobacter pylori, 72 h
Method: Helicobacter pylori strains used in these experiments were obtained from the biopsial samples of the stomachs of patients suffering from ulcerative diseases of the gastrointestinal system. From the pure culture of isolates a thick suspension was prepared with cysteine-inositol solution suitable for lyophilisation, and the suspension obtained was maintained in cold-resistant plastic ampoules in a deep-freezing chamber at a temperature of about -196 ° C. For the determination of the inhibitory effect of the compounds tested on Helicobacter pylori, blood agar containing 10 mg/liter of vancomycin and 25 mg/liter of amphotericin B was used /C. A. M. McNulty and I. C. Dent: Susceptibility of clinical isolates of Campylobacter pylori to twenty one antimicrobial agents. Book of Abstracts, 4th European Congress of Clinical Microbiology, Nice (1989)/.
The plates containing the strains were cultivated at 37° C. for 72 hours under a gaseous atmosphere containing 10 per cent of carbon dioxide and 5 per cent of oxygen /D. M. Jones et al., J. Clin. Pathol., 37, 1002 (1984)/.
The culture media were inoculated by diluting the broth culture of the strains grown overnight or with a suspension prepared from a culture obtained on a solid medium. About 10^5 of germs were applied to the surface of each plate.
A series of dilution were prepared from the compound to be-tested. The MIC (minimal inhibiting concentration) value of the compounds tested was considered to be the lowest concentration inhibiting the growth of the test organism completely.

MIC ([4]; Table IV, strains not specified, unit inferred): > 500 µg/mL | MIC ([4]; strain 867/90): > 500 µg/mL | MIC ([4]; strain 1596): > 500 µg/mL | MIC ([4]; strain 3842): > 500 µg/mL | MIC ([4]; strain 6656): > 500 µg/mL | MIC ([4]; strain 6709): > 500 µg/mL
Structure (SMILES): NC[C@H]1CC[C@H](C(=O)Oc2ccc(CCC(=O)O)cc2)CC1 [cetraxate, trans-3-[4-[4-(aminomethyl)cyclohexylcarbonyloxy]phenyl]-propionic acid, reference compound]
ED50 ([1]; po, rat, 60 min pretreatment, absolute ethanol 1 ml/animal, erosion index): 76.4 mg/kg | gastroprotective activity (in words) ([1]; test with absolute ethanol): nearly identical activity | gastric acid secretion inhibition (in words) [2]: only a moderate gastric acid secretion inhibition | ED50 [3]: 22 mg/kg | effect on Helicobacter pylori (in words) ([4]; Table IV): ineffective at the concentration indicated
